Reference: ChEMBL document CHEMBL4334533, “Design, synthesis, and validation of novel nitrogen-based chalcone analogs against triple negative breast cancer” (Eur J Med Chem, 2020)
Values belong to the compound of their own block, whether it stands above or below them. Active and inactive are the calls of the source. No cut-off for these calls is given here.

Legend:
[1] = test system: MDA-MB-231; assay: Antimigratory activity in human MDA-MB-231 cells assessed as inhibition of cell motility after 24 hrs by microscopic analysis; assay type: functional, cell-based; conditions: MDA-MB-231, 24 h
[2] = test system: MDA-MB-231; assay: Antimigratory activity in human MDA-MB-231 cells assessed as wound diameter at 5 uM measured after 24 hrs by microscopic analysis; assay type: functional, cell-based
[3] = test system: MDA-MB-468; assay: Inhibition of anchorage-independent colony formation in human MDA-MB-468 cells at 5 uM measured upto 21 days by soft agar colony formation assay; assay type: functional, cell-based
[4] = test system: MCF7; assay: Inhibition of anchorage-independent colony formation in human MCF7 cells at 5 uM measured upto 21 days by soft agar colony formation assay; assay type: functional, cell-based
[5] = test system: MDA-MB-231; assay: Inhibition of anchorage-independent colony formation in human MDA-MB-231 cells at 5 uM measured upto 21 days by soft agar colony formation assay; assay type: functional, cell-based
[6] = test system: MDA-MB-231; assay: Antiproliferative activity against human MDA-MB-231 cells assessed as inhibition of cell growth measured after 48 hrs by microplate reader analysis; assay type: functional, cell-based; conditions: MDA-MB-231, 48 h
[7] = test system: MDA-MB-231; assay: Antitumor activity against human MDA-MB-231 cells xenografted in athymic nude mouse assessed as the inhibition of tumor growth at 10 mg/kg, ip dosed 3 times per week for 45 days relative to control; assay type: functional; conditions: MDA-MB-231, ip, 1080 h
[8] = Toxicity in athymic nude mouse xenografted with human MDA-MB-231 cells assessed as behavioral change at 10 mg/kg, ip administered for 14 days; assay type: organism-based; conditions: in vivo, 336 h
[9] = test system: MDA-MB-231; assay: Antitumor activity against human MDA-MB-231 cells xenografted in athymic nude mouse assessed as time delay in tumor growth at 10 mg/kg, ip dosed 5 times per week preincubated for 15 days measured after 30 days relative to control; assay type: functional, organism-based
[10] = test system: MCF7; assay: Antiinvasive activity in human MCF7 cells assessed as reduction in 10% FBS-induced cell invasion at 5 uM by crystal violet staining based matrigel assay relative to control; assay type: functional
[11] = test system: MDA-MB-468; assay: Induction of apoptosis in human MDA-MB-468 cells assessed as early apoptotic cells at 8 uM measured after 24 hrs by AnnexinV/7-AAD staining based flow cytometric analysis (reference value: 3.45%); assay type: functional
[12] = test system: MDA-MB-468; assay: Induction of apoptosis in human MDA-MB-468 cells assessed as late apoptotic cells at 8 uM measured after 24 hrs by AnnexinV/7-AAD staining based flow cytometric analysis (reference value: 1.86%); assay type: functional
[13] = test system: MDA-MB-468; assay: Induction of apoptosis in human MDA-MB-468 cells assessed as increase in BAX/Bcl2 expression ratio upto 10 uM measured after 48 hrs by western blot analysis; assay type: functional, cell-based
[14] = test system: MDA-MB-231; assay: Cell cycle arrest in human MDA-MB-231 cells assessed as accumulation at G2/M phase at 5 uM measured after 48 hrs by propidium iodide staining-based flow cytometric analysis relative to control; assay type: functional
[15] = test system: MDA-MB-231; assay: Growth inhibition in human MDA-MB-231 cells at 10 uM after 48 hrs by MTT assay; assay type: functional, cell-based
[16] = test system: MDA-MB-231; assay: Up regulation of E-cadherin level in human MDA-MB-231 cells up to 10 uM by Western blot analysis; assay type: functional, cell-based
[17] = test system: MCF7; assay: Up regulation of E-cadherin level in human MCF7 cells up to 10 uM by Western blot analysis; assay type: functional, cell-based
[18] = test system: MDA-MB-231; assay: Induction of morphological changes in human MDA-MB-231 cells assessed as mesenchymal-epithelial transition at 10 uM by inverted microscopic analysis; assay type: functional, cell-based
[19] = test system: MCF7; assay: Antimigratory activity in human MCF7 cells assessed as inhibition of cell motility after 24 hrs by microscopic analysis; assay type: functional, cell-based; conditions: MCF7, 24 h
[20] = test system: MDA-MB-231; assay: Antiinvasive activity in human MDA-MB-231 cells assessed as reduction in 10% FBS-induced cell invasion at 5 uM by crystal violet staining based matrigel assay relative to control; assay type: functional; parameters: scale not given: the % may be the effect or the level left
[21] = test system: MDA-MB-231; assay: Antitumor activity against human MDA-MB-231 cells xenografted in athymic nude mouse assessed as the reduction in tumor volume at 10 mg/kg, ip dosed 3 times per week for 45 days (reference value: 1350 mm3); assay type: functional
[22] = test system: MDA-MB-468; assay: Induction of apoptosis in human MDA-MB-468 cells assessed as early apoptotic cells at 8 uM measured after 48 hrs by AnnexinV/7-AAD staining based flow cytometric analysis (reference value: 4.15%); assay type: functional
[23] = Toxicity in athymic nude mouse xenografted with human MDA-MB-231 cells assessed as change in food intake at 10 mg/kg, ip administered measured for 14 days; assay type: organism-based; conditions: in vivo, 336 h
[24] = Toxicity in athymic nude mouse xenografted with human MDA-MB-231 cells assessed as effect on survival rate at 10 mg/kg, ip dosed 5 times per week preincubated for 15 days measured after 30 days; assay type: organism-based; conditions: in vivo, 720 h
[25] = test system: MDA-MB-468; assay: Induction of apoptosis in human MDA-MB-468 cells assessed as viable cells at 8 uM measured after 24 hrs by AnnexinV/7-AAD staining based flow cytometric analysis (reference value: 94.1%); assay type: functional; conditions: MDA-MB-468, 24 h, read-out: Activity
[26] = test system: MDA-MB-231; assay: Antitumor activity against human MDA-MB-231 cells xenografted in athymic nude mouse assessed as the reduction in tumor weight at 10 mg/kg, ip dosed 3 times per week for 45 days (reference value: 1.58 +/- 0.283 g); assay type: functional
[27] = test system: MDA-MB-468; assay: Induction of apoptosis in human MDA-MB-468 cells assessed as necrotic cells at 8 uM measured after 24 hrs by AnnexinV/7-AAD staining based flow cytometric analysis (reference value: 0.62%); assay type: functional
[28] = Cytotoxicity against E6/E7 immortalized human HNME cells assessed as inhibition of cell growth measured after 48 hrs by microplate reader analysis; assay type: cell-based; conditions: read-out: LD50
[29] = test system: MCF7; assay: Growth inhibition in human MCF7 cells at 10 uM after 48 hrs by MTT assay; assay type: functional, cell-based
[30] = test system: MCF7; assay: Antiproliferative activity against human MCF7 cells assessed as inhibition of cell growth measured after 48 hrs by microplate reader analysis; assay type: functional, cell-based; conditions: MCF7, 48 h
[31] = Selectivity index, ratio of LD50 for E6/E7 immortalized human HNME cells to IC50 for human MCF7 cells
[32] = Toxicity in athymic nude mouse xenografted with human MDA-MB-231 cells assessed as change in body weight at 10 mg/kg, ip administered for 14 days; assay type: organism-based; conditions: in vivo, 336 h
[33] = test system: MDA-MB-468; assay: Induction of morphological changes in human MDA-MB-468 cells assessed as mesenchymal-epithelial transition at 10 uM by inverted microscopic analysis; assay type: functional, cell-based
[34] = test system: MCF7; assay: Induction of morphological changes in human MCF7 cells assessed as mesenchymal-epithelial transition at 10 uM by inverted microscopic analysis; assay type: functional, cell-based
[35] = test system: MCF7; assay: Up regulation of pan-cadherin level in human MCF7 cells up to 10 uM by Western blot analysis; assay type: functional, cell-based
[36] = test system: MCF7; assay: Induction of apoptosis in human MCF7 cells assessed as increase in BAX/Bcl2 expression ratio upto 10 uM measured after 48 hrs by western blot analysis; assay type: functional, cell-based
[37] = test system: MDA-MB-468; assay: Induction of apoptosis in human MDA-MB-468 cells assessed as late apoptotic cells at 8 uM measured after 48 hrs by AnnexinV/7-AAD staining based flow cytometric analysis (reference value: 2.83%); assay type: functional
[38] = Selectivity index, ratio of LD50 for E6/E7 immortalized human HNME cells to IC50 for human MDA-MB-468 cells
[39] = test system: Chorioallantoic membrane; assay: Antiangiogenic activity in Leghorn chicken fertilized egg chorioallantoic membrane assessed as reduction in number of blood vessels at 4 ug measured after 4 days by microscopic analysis relative to control; assay type: functional, tissue-based; parameters: scale not given: the % may be the effect or the level left; conditions: Gallus gallus
[40] = test system: MDA-MB-231; assay: Inhibition of tumor growth in human MDA-MB-231 cells xenografted in nude mouse; assay type: functional
[41] = test system: MDA-MB-231; assay: Down regulation of FAK level in human MDA-MB-231 cells up to 10 uM by Western blot analysis; assay type: functional, cell-based
[42] = test system: MDA-MB-468; assay: Induction of apoptosis in human MDA-MB-468 cells assessed as viable cells at 8 uM measured after 48 hrs by AnnexinV/7-AAD staining based flow cytometric analysis (reference value: 92.5%); assay type: functional; conditions: MDA-MB-468, 48 h, read-out: Activity
[43] = test system: MDA-MB-468; assay: Cell cycle arrest in human MDA-MB-468 cells assessed as accumulation at G2/M phase at 5 uM measured after 48 hrs by propidium iodide staining-based flow cytometric analysis relative to control; assay type: functional
[44] = test system: MDA-MB-231; assay: Up regulation of pan-cadherin level in human MDA-MB-231 cells up to 10 uM by Western blot analysis; assay type: functional, cell-based
[45] = test system: MDA-MB-231; assay: Antimigratory activity in human MDA-MB-231 cells assessed as wound diameter measured after 24 hrs by microscopic analysis (reference value: 29.5 +/- 1.95%); assay type: functional
[46] = test system: MDA-MB-468; assay: Induction of apoptosis in human MDA-MB-468 cells assessed as necrotic cells at 8 uM measured after 48 hrs by AnnexinV/7-AAD staining based flow cytometric analysis (reference value: 0.51%); assay type: functional
[47] = test system: MDA-MB-468; assay: Antiproliferative activity against human MDA-MB-468 cells assessed as inhibition of cell growth measured after 48 hrs by microplate reader analysis; assay type: functional, cell-based; conditions: MDA-MB-468, 48 h
[48] = test system: MDA-MB-468; assay: Antiinvasive activity in human MDA-MB-468 cells assessed as reduction in 10% FBS-induced cell invasion at 5 uM by crystal violet staining based matrigel assay relative to control; assay type: functional
[49] = Selectivity index, ratio of LD50 for E6/E7 immortalized human HNME cells to IC50 for human MDA-MB-231 cells

IC50 [1]: 2.01 µM
Compound: CC(=O)O[C@H]1C(=O)[C@@]2(C)[C@H]([C@H](OC(=O)c3ccccc3)[C@]3(O)C[C@H](OC(=O)[C@H](O)[C@@H](NC(=O)c4ccccc4)c4ccccc4)C(C)=C1C3(C)C)[C@]1(OC(C)=O)CO[C@@H]1C[C@@H]2O [PACLITAXEL]
Activity [2]: Active | colony formation inhibition (active/inactive) [3]: Active | colony formation inhibition (activity call) [4]: Active | inhibition [5]: Active

IC50 [1]: 1.99 µM
Compound: COc1cccc(C(=O)/C=C/c2ccc(N3CCCC3)cc2)c1
Activity [2]: Active

Compound: COc1cccc(C(=O)/C=C/c2ccc(N(CCCl)CCCl)cc2)c1
IC50 [6]: 8 µM | inhibition in vivo at 10 mg/kg [7]: 46.4% | Activity [8]: Non-Toxic | Activity [9]: Active | Activity [10]: Active | Activity [11]: 9.04% | Activity [12]: 2.13% | Activity [13]: Active | Activity [14]: 47.27% | growth inhibition (GI) [15]: Active | Activity [16]: Active | Activity [17]: Active | Activity [18]: Active | IC50 [19]: 2.44 µM | Activity [20]: 80% | Activity [21]: 487.26 mm3 | Activity [22]: 28% | Activity [23]: Non-Toxic | Activity [24]: Non-Toxic | viability at 8 µM [25]: 88.2% | Activity [26]: 0.88 g | Activity [27]: 0.61% | CC50 at 48 h [28]: 21.3 µM | growth inhibition (GI) [29]: Active | IC50 [30]: 6.43 µM | Ratio LD50/IC50 [31]: 3.31 | Activity [32]: Non-Toxic | Activity [33]: Active | Activity [34]: Active | Activity [35]: Active | Activity [36]: Active | Activity [37]: 11.1% | Ratio LD50/IC50 [38]: 2.92 | Activity [39]: 60.2% | inhibition (INH) [40]: 57% | Activity [41]: Active | viability at 8 µM [42]: 57.3% | Activity [43]: 66.45% | Activity [44]: Active | inhibition (INH) [45]: 67.89% | IC50 [1]: 3 µM | Activity [46]: 3.63% | Activity [2]: Active | IC50 [47]: 7.3 µM | Activity [48]: Active | colony formation inhibition (active/inactive) [3]: Active | Ratio LD50/IC50 [49]: 2.66 | colony formation inhibition (activity call) [4]: Active | inhibition [5]: Active

IC50 [1]: 5.71 µM
Compound: O=C(/C=C/c1ccc(N2CCCC2)cc1)c1ccc2c(c1)OCO2
Activity [2]: Active
